What was measured:
[1] = tested on: DTX-1 (Deltex E3 Ubiquitin Ligase 1); experiment: Compassionate use T-ALL patient: DTX-1 gene expression by RTqPCR; format: in vivo, human; settings: at C2D15; time-dependent; target dose 500 mg once daily
Description: DTX-1 is a positive regulator of NOTCH signalling pathway (C1D01_pre: Cycle 1 Day 1 predose; C1D01_1 h: Cycle 1 Day 1 1 hour post dose; C1D21_1 h: Cycle 1 Day 21 1 hour post dose; C2D15_1 h: Cycle 2 Day 15 1 hour post dose).
Administration of 6-(4-Tert-Butylphenoxy)Pyridin-3-Amine induced a potent time-dependent downregulation of DTX-1 (Deltex E3 Ubiquitin Ligase 1) up to 95% at C2D15, indicative of NOTCH pathway downregulation. DTX-1 is a positive regulator of NOTCH signalling pathway
Blood samples for PBMCs and cytokine analysis were collected using BD Vacutainer® Evacuated Blood Collection Tubes, and immediately centrifuged to separate the cell and plasma compartments for further analysis. Gene expression profiling was performed by standard RTqPCR. Cytokine analysis in the plasma compartment was performed with a standard commercially available ELISA method.

[2] = Phase I/IIA first-in-human dose escalation: safety and tolerability (adverse events, DLT); settings: in vivo
Excerpt: […], open-label study investigating the safety, tolerability, pharmacokinetics (PK), pharmacodynamics (PD) and preliminary efficacy of the pan-NOTCH inhibitor 6-(4-Tert-Butylphenoxy)Pyridin-3-Amine in adult patients with locally advanced or metastatic solid tumours or hematologic malignancies.
6-(4-Tert-Butylphenoxy)Pyridin-3-Amine is orally administered and is a small molecule targeting the NOTCH signalling pathway with binding to the NOTCH-specific transcription complex located at the nucleus of cells. The study is divided into two parts with Part A being the dose escalation part of the study to determine the maximum tolerated dose (MTD) or recommended Phase II dose (RP2D). In Part A at least 3, up to 6 patients per dose will participate in the sequentially enrolled dose cohorts. In an additional cohort of approximately 45-50 patients, the safety of the previously determined RP2D will be confirmed (dose confirmatory cohort).
The dosing will be 15, 30, 60, 120, 170, 250, 400, or 600 mg of the 6-(4-Tert-Butylphenoxy)Pyridin-3-Amine monohydrochloride salt or higher per day or alternatively 20, 40, 60, 120, 170, 250, 400, or 600 mg of the 6-(4-Tert-Butylphenoxy)Pyridin-3-Amine monohydrochloride salt or higher per day. Dosing of 15, 30, 60, 120, 170, 250, 400, or 600 mg of the 6-(4-Tert-Butylphenoxy)Pyridin-3-Amine monohydrochloride salt corresponds to dosing of 13, 26, 52, 104, 148, 217, 348, or 522 mg of 6-(4-Tert-Butylphenoxy)Pyridin-3-Amine (free base). Dosing of 20, 40, 60, 120, 170, 250, 400, or 600 mg of the 6-(4-Tert-Butylphenoxy)Pyridin-3-Amine monohydrochloride salt corresponds to dosing of 17, 35, 52, 104, 148, 217, 348, or 522 mg of 6-(4-Tert-Butylphenoxy)Pyridin-3-Amine (free base). For this study, 6-(4-Tert-Butylphenoxy)Pyridin-3-Amine monohydrochloride salt was formulated into a capsule having a drug load of 5, 10, 20, 50 and 100 mg, respectively intended to be administered orally. • Patients will meet the following criteria:
The primary outcome measures for this study are: • Part A (Escalation): Dose limiting toxicities (DLT) • Part B (Expansion): Best overall response according to the respective tumour assessment criteria for the different cancer indications.
Fourty-one patients (median age 55 years, range 25 to 76 years) have been treated with 6-(4-Tert-Butylphenoxy)Pyridin-3-Amine in the dose escalation part of the clinical study at oral doses of 15 mg-600 mg QD (once a day). […] Cumulatively, a total of 352 AEs has occurred in 41 patients since study initiation, of which 132 AEs […] in 31 patients were considered related to the study drug. The treatment-related treatment-emergent AEs (TEAEs) most commonly reported (≥10% of patients) were nausea (24%), diarrhea (20%), dyspepsia (15%), fatigue (12%), and vision blurred (12%).

CC(C)(C)c1ccc(Oc2ccc(N)cn2)cc1 [6-(4-Tert-Butylphenoxy)Pyridin-3-Amine]
downregulation of DTX-1 [1]: up to 95%
AEs considered related to the study drug, share of all AEs ([2]; human): 37.2%
number of AEs considered related to the study drug ([2]; human): 132
number of patients with AEs considered related to the study drug ([2]; human): 31
number of serious adverse events (SAEs) ([2]; human): 12
related AE of tachycardia ([2]; human): one related AE of tachycardia Grade 1
serious adverse events, share of all AEs ([2]; human): 3.4%
total number of AEs ([2]; human): 352
treatment-related TEAE diarrhea ([2]; human): 20%
treatment-related TEAE dyspepsia ([2]; human): 15%
treatment-related TEAE fatigue ([2]; human): 12%
treatment-related TEAE nausea ([2]; human): 24%
treatment-related TEAE vision blurred ([2]; human): 12%
QTc prolongation [2]: no QTc prolongations
SAEs considered related to study drug [2]: one SAE was considered related to study drug
cardiotoxicity signal [2]: no signal of cardiotoxicity
deaths due to drug-related AEs [2]: No deaths due to drug-related AEs
dose limiting toxicity (DLT) [2]: one dose limiting toxicity
dose relation of AEs over the dose cohorts [2]: no evidence of dose relation
skin phototoxicity or eye mydriasis events [2]: No events of skin phototoxicity or eye mydriasis
